Literature values as cited in patent US20200289459A1, “LIQUID DOSAGE FORMS, METHODS OF MAKING AND USE” (CANOPY GROWTH CORPORATION, priority 2017, published 2020).

Assays:
CB1 receptor = CB1 receptor (Homo sapiens, UniProt P21554)
[1] = test system: locomotor suppression, catalepsy, hypothermia and analgesia; conditions: up to 80 mg/kg
5-HT1A receptor = biological target: T1, 5-HT1A receptor (Homo sapiens, UniProt P08908)
T1 sequence (P08908 1-422): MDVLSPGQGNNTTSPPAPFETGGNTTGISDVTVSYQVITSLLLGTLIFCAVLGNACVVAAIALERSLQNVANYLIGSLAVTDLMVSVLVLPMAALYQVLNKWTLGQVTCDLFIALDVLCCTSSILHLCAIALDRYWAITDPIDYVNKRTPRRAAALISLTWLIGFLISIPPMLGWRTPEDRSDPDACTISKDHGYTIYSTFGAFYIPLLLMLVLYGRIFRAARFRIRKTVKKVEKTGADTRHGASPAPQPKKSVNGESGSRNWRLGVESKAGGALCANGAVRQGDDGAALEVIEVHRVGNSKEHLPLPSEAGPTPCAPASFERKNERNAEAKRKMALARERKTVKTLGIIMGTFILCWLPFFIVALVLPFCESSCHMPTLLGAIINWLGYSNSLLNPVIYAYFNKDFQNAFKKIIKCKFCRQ

CB2 receptor = CB2 receptor (Homo sapiens, UniProt P34972)
CB2 receptor, sequence (P34972 whole entry): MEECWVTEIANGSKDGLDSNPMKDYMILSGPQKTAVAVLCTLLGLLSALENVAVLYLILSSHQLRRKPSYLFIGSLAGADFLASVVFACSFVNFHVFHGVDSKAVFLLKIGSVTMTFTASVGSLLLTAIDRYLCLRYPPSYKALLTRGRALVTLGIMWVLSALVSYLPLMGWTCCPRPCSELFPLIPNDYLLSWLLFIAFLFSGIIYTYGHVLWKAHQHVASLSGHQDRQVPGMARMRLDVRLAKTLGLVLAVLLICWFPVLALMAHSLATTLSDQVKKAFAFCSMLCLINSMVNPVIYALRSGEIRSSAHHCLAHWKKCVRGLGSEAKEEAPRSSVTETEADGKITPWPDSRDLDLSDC

CB1 receptor, sequence (P21554 whole entry): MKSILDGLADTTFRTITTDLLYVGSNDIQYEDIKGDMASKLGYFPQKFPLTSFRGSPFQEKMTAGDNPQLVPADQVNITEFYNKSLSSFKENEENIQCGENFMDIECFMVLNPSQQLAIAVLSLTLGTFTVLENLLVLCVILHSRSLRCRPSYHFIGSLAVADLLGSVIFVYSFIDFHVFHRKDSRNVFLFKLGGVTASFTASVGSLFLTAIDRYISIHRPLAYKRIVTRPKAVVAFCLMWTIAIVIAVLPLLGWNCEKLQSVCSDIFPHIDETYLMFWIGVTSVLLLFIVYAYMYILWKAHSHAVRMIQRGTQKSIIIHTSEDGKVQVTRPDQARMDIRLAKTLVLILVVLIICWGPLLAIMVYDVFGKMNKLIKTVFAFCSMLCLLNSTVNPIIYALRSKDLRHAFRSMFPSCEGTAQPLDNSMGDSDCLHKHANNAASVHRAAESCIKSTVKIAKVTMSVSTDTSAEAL

Structure (SMILES): CCCCCc1cc(O)c(C/C=C(\C)CCC=C(C)C)c(O)c1 [CBG, Cannabigerol]
- affinity as CB1 receptor antagonist (CB1 receptor): low affinity
- affinity as α2-adrenergic receptor agonist (α2-adrenergic receptor): high affinity
- effect in the mouse tetrad test of cannabimimetic activity [1]: without effect
- affinity as 5-HT1A receptor antagonist (5-HT1A receptor): moderate affinity
- binding to the CB2 receptor (CB2 receptor): antagonist
